In EP4043434A1, “NOVEL SULFONYLIMINES” (Karl-Franzens-Universität Graz, priority 2021, dated 2022):

How the values were obtained:
L-6 cells = assay: cells; assay type: cell-based, rat; conditions: for IC50: Rattus norvegicus, L6, cytotoxicity against L-6 cells, 70 h + 2 h incubation with Alamar Blue
Procedure: Assays were performed in 96-well microtiter plates, each well containing 100 µl of RPMI 1640 medium supplemented with 1% L-glutamine (200 mM) and 10% fetal bovine serum, and 4000 L-6 cell, a primary cell line derived from rat skeletal myoblasts (Page, C.; et al. J. Oncol. 1993, 3, 473-476; Ahmed, S. A.; Gogal, R. M.; et al. J. Immunol. Methods 1994, 170 211-224).
Serial drug dilutions of eleven 3-fold dilution steps covering a range from 100 to 0.002 µg/ml were prepared. After 70 hours of incubation the plates were inspected under an inverted microscope to assure growth of the controls and sterile conditions. 10 µl of Alamar Blue was then added to each well and the plates incubated for another 2 hours. Then the plates were read with a Spectramax Gemini XS microplate fluorometer (Molecular Devices Cooperation, USA) using an excitation wave length of 536 nm and an emission wave length of 588 nm. The IC50 values were calculated by linear regression (Huber, W.; et al. Acta Trop. 1993, 55, 257-261.) from the sigmoidal dose inhibition curves using SoftmaxPro software (Molecular Devices Cooperation, USA). Podophyllotoxin (Sigma P4405) was used as control. Table 1: Results for cytotoxicity against L-6 cells expressed as IC50 values (µM)

Candida krusei CCMM L10 = assay: Drop plate method assay, antifungal activity; assay type: cell-based; parameters: key: high activity (++); Medium activity (+); no activity(-); conditions: 10 µl of 1 mg/ml in DMSO dropped on seeded agar plate, read after approximately 10-16 h
Procedure: (§1) A drop plate method assay (Alajlani, M.; et al. Chromatographia 2016, 79, 1527-1532.) with modification was performed to detect the antimicrobial and antifungal activity against the Gram positive bacteria Arthrobacter aurescens and the yeast strain Candida krusei. All compounds were dissolved in DMSO to a concentration of 1 mg/ml. Using sterile micropipette 10 µl of each compound was directly but gently dropped over seeded agar plate with test organism. The liquid was allowed to diffuse before the plate was inverted and incubated. The growth conditions for every strain was considered. The results were noted when a lawn of the indicator organism appeared on the plate (approximately 10-16 h). The magnitude of activity was noted as high activity (++), Medium activity (+),and no activity(-). Table 2: Antimicrobial and antifungal activities of compounds were detected over the test organisms.

[1] = system: Arthrobacter aurescens DSM20116; assay: Drop plate method assay, antimicrobial activity; assay type: cell-based; parameters: key: high activity (++); Medium activity (+); no activity(-); conditions: 10 µl of 1 mg/ml in DMSO dropped on seeded agar plate, read after approximately 10-16 h
Procedure: as §1

SMILES | IC50 (L-6 cells) | IC50 for cytotoxicity relative to the investigated concentration (L-6 cells) | magnitude of activity, Candida krusei CCMM L10 (Candida krusei CCMM L10) | magnitude of activity, Arthrobacter aurescens DSM20116 [1]
CC(C)=C/C(=C\C=NS(=O)(=O)c1ccc([N+](=O)[O-])cc1)N1CCCCC1 [Example 2, (2E)-N-{5-Methyl-1-[(4-nitrophenyl)sulfonylimino]hexa-2,4-dien-3-yl}piperidin-1-ium chloride] | 206 µM | – | – | –
CC(C)=C/C(=C\C=NS(=O)(=O)c1ccc([N+](=O)[O-])cc1)N1CCCC1.Cl [Example 3, (2E)-N-{5-Methyl-1-[(4-nitrophenyl)sulfonylimino]hexa-2,4-dien-3-yl}pyrrolidine-1-ium chloride] | 250 µM | 100 times | + | ++
CC(C)=C/C(=C\C=NS(=O)(=O)c1ccc(Cl)cc1)N1CCCCC1 [Example 5, (2E)-4-Chloro-N-[5-methyl-3-(piperidin-1-yl)hexa-2,4-dien-1-ylidene]benzenesulfonamide] | – | – | + | ++
CC(C)=C/C(=C\C=NS(=O)(=O)c1ccccc1)N1CCCC1 [Example 6, 2(E)-N-[5-Methyl-3-(pyrrolidin-1-yl)hexa-2,4-dien-1-ylidene]benzenesulfonamide] | – | – | + | ++
CC(C)=C/C(=C\C=NS(=O)(=O)c1ccccc1)N(C)C [Example 7, (2E)-N-(3-Dimethylamino-5-methylhexa-2,4-dien-1-ylidene)benzenesulfonamide] | – | – | + | ++
CC(C)=C/C(=C\C=NS(=O)(=O)c1ccc(C)cc1)N1CCCC1 [Example 8, (2E)-4-Methyl-N-[5-methyl-3-(pyrrolidin-1-yl)hexa-2,4-dien-1-ylidene]benzenesulfonamide] | – | – | + | ++
CC(C)=C/C(=C\C=NS(C)(=O)=O)N1CCCCC1 [Example 10, (2E)-N-[5-Methyl-3-(piperidin-1-yl)hexa-2,4-dien-1-ylidene]methanesulfonamide] | – | – | + | ++
